Measurements from patent publication US5256657A, “Succinamide derivative matrix-metalloprotease inhibitors” (Sterling Winthrop, Inc., priority 1991, dated 1993).

Biological target: T1, human fibroblast collagenase (Homo sapiens, UniProt P03956)
T1 construct: made in house; host or cells: human fibroblast (native enzyme by its name)
T1 sequence (P03956 100-469): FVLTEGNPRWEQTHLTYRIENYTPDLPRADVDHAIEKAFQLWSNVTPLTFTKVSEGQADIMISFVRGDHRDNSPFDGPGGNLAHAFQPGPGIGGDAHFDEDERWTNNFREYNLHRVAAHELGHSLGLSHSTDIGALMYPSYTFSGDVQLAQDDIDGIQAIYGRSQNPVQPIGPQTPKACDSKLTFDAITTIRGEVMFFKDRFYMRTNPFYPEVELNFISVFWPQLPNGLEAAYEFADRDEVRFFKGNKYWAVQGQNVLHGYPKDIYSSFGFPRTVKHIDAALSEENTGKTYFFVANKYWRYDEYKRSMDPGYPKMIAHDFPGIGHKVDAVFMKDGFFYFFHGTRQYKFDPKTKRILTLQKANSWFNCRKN
Experiment: Inhibition of Human Fibroblast Collagenase (in vitro, H-Pro-Met-Ala-Leu-Trp-NHCH3 substrate, fluorescamine detection)
Format: biochemical
Conditions: trypsin-activated enzyme 25 nM; substrate 375 μM; pH 7.5; DMSO not exceeding 5%; 90 minutes; calculated from competitive inhibitor equation; read-out: IC50 (half-maximal inhibitory concentration), Inhibition of Human Fibroblast Collagenase
Experimental: As stated above the compounds of Formula I are matrix-metalloprotease inhibitors useful in treatment of disease in which matrix-metalloprotease promoted connective tissue remodelling is a causative factor, for example, rheumatoid arthritis and cancer.
Human fibroblast collagenase was purified as described by Fields et al. (The Journal of Biological Chemistry, vol. 262, pp. 6221-6226, 1987), activated with trypsin and used at a concentration of 25 nM. H-Pro-Met-Ala-Leu-Trp-NHCH3 (Netzel-Arnett et al., The Journal of Biological Chemistry, vol 266, pp. 6747-6755, 1991) was used as substrate at a concentration of 375 μM. Fluorescamine was used to detect the products of enzymolysis. […] Product concentrations were measured at intervals throughout the test period (90 minutes). The half-maximal inhibitory concentration (IC50) of the test compound was calculated from the equation for a competitive inhibitor using percent inhibition values between 20% and 80%. The products of parts B and C of example 2 and parts B and C. of example 3 were tested and the following results were obtained.

| SMILES | IC50 |
| --- | --- |
| CC(C)C[C@H](CC(=O)NO)C(=O)N[C@@H](Cc1c[nH]c2ccccc12)C(=O)NCCSCCN(C)C [Example 2C] | 20 nM |
| CC(C)C[C@H](CC(=O)O)C(=O)N[C@@H](Cc1c[nH]c2ccccc12)C(=O)NCCSCCN1CCOCC1 [Example 3B] | 4500 nM |
| CC(C)C[C@H](CC(=O)NO)C(=O)N[C@@H](Cc1c[nH]c2ccccc12)C(=O)NCCSCCN1CCOCC1 [Example 3C] | 15 nM |
| CC(C)C[C@H](CC(=O)O)C(=O)N[C@@H](Cc1c[nH]c2ccccc12)C(=O)NCCSCCN(C)C [Example 2B] | 8800 nM |
